Measured values published in patent US20230285477A1, “MICROBIAL THERAPY” (BEO THERAPEUTICS, priority 2020, published 2023).

Experiments:
uricase = experiment: Bacterial uricase activity (Amplex Red Uric Acid/Uricase Assay Kit); format: biochemical; conditions: mean average of all strains of the species; 2% uric acid in medium; fluorescence after 30 min; positive control 20 mM H2O2
Description: Bacterial strains were evaluated for uricase catalytic activity. Prior to the assay, 1/100th volume from the glycerol stocks (example 1) was added to the microtiter plate containing appropriate medium (see overview). Culturing conditions (time, temperature, medium, aerobic or anaerobic) depend on species and can be found in Table 1. Uric acid was dissolved in medium to 2% and the medium was filter sterilized (therefore uric acid was immediately present in the medium upon culturing). Growth of the bacterial strains was assessed by visual examination (the level of viscosity of the medium) before harvesting for fluorescence measurement. […]
The enzyme assay, Amplex® Red Uric Acid/Uricase Assay Kit; Catalog No. A22181; Molecular Probes, was used according to the instructions of the manufacturer. Fluorescence readouts were determined after 30 min using excitation at 530±12.5 nm and fluorescence detection at 590±17.5 nm. […]
The activity of the strains listed in Table 1 was determined, as described in Examples 2 and 3, as percentage of maximal fluorescence from positive controls (Bifidobacterium breve strain ATCC 15701 was used as positive control for the screems according to Example 2 and 20 mM H2O2 solution was used as positive control for the screems according to Example 3). […]

[1] = tested on: hyperuricemia mouse model; experiment: Hyperuricemia mouse model (high-purine diet + potassium oxonate), serum uric acid; format: in vivo, mice; conditions: FIG. 9; normal range 40-65
Text: 6-10 weeks old mice are randomly divided into groups of 10 mice as follows, using 1.0×10^8-1010 CFU for the test product: • 1) Control group • 2) Allopurinol treatment group • 3) Microbial treatment group 1: Test product is bacterial strain BEO #104 • 4) Microbial treatment group 2: Test product is bacterial strain BEO #110 • 5) Microbial treatment group 4: Test product is bacterial strain BEO #227 • 6) Microbial treatment group 6: Test product is mix of bacterial strains BEO #110+BEO #227
The control group is fed a normal diet (laboratory chow and water ad libitum) and treated with saline (0.5 ml, sodium chloride solution in water) by intragastric administration once a day. The other groups are fed a high-purine diet (laboratory high-purine chow and water ad libitum) and administered an intraperitoneal injection of potassium oxonate 300 mg/kg once a day. The microbial treatment groups are treated daily with approximately 1.0×10^9 CFU/day by intragastric administration. The strains tested all have QPS status and they are produced and formulated under laboratory conditions.
Mice are weighed day −1 for determination of mean weight of animals in the experiment and for composition of groups. […]
Serum is collected once weekly and at the end of experiment. […] Serum is analysed for uric acid concentration.

patients = patients treated with allopurinol; cited from earlier work

Molecule: Lactobacillus plantarum
- Uricase activity: Inhibitory activity (uricase): low (low (5-30% of positive control))

Molecule: Oc1ncnc2[nH]ncc12 [allopurinol]
- serum urate concentration over a 23-hour treatment cycle [1]: large fluctuations in serum urate outside the normal range
- patients treated reaching the treatment target (patients): 30-40%
